The subject of this assay is Alternaria solani. Kind of assay: Activity against early blight of tomato caused by Alternaria solani. Type of assay: in vivo. Particulars: 250 ppm, spray on tomato leaves, rated after 5 days; untreated control 80% infected. On the procedure:
The active compounds were formulated separately as a stock solution comprising 0.25% by weight of active compound in acetone or DMSO. 1% by weight of the emulsifier Uniperol® EL (wetting agent having emulsifying and dispersing action based on ethoxylated alkylphenols) was added to this solution. The stock solutions of the active compounds were diluted with water to the stated concentration. Leaves of potted plants of the cultivar “Golden Princess” were sprayed to runoff point with an aqueous suspension having the concentration of active compound stated below. The next day, the leaves were infected with an aqueous spore suspension of Alternaria solani in 2% biomalt solution having a density of 0.17×10^6 spore/ml. The plants were then placed in a water-vapor saturated chamber at temperatures between 20 and 22° C. After 5 days, the blight on the untreated, but infected control plants had developed to such an extent that the infection could be determined visually in %.

Consider `CCC(C)Cc1c(-c2c(F)cc(F)cc2F)c(C)nc2nc(OC)nn12` (stereo not shown) [I-11, 2-Methoxy-5-methyl-6-(2,4,6-trifluorophenyl)-7-(2-methylbutyl)-1,2,4-triazolo[1,5a]pyrimidine], for which the “infection of the leaves, determined visually” value was less than 10%.
